# Data: publication PMC12081876, “Identification of PTGR2 inhibitors as a new therapeutic strategy for diabetes and obesity” (EMBO Molecular Medicine, 2025)
# “And” between values parts separate entries of the source, which are not always exact repeats. Identical values can stand only once.
# Experiments:
# Myc-DDK-mPPARγ C313A = molecular target: T1, Myc-DDK-mPPARγ C313A (Mus musculus, UniProt P37238, C313A); assay: Reciprocal co-immunoprecipitation in HEK293T cells, mPPARγ C313A; format: binding, murine; details: 15-keto-PGE2 treated
# T1 construct: host or cells: HEK293T
# Method: HEK293T cells were transfected with murin PPARγ (mPPARγ) and mPPARγ C313A plasmids for immunoprecipitation, which are Myc-DDK-tagged (OriGene, USA). […] According to the manufacturer’s protocol, proteins were immunoprecipitated using Anti-FLAG® M2 Magnetic Beads (2.5 mg/ml; cat. no. F1804, Sigma-Aldrich). Subsequently, the eluted proteins were separated by SDS-PAGE and subjected to immunoblot analysis. Following separation by SDS-PAGE, proteins were stained with Coomassie blue and SYPRO-Ruby stain. The protein bands of interest were cut out for in-gel tryptic digestion followed by C18 Zip-Tip clean-up (Millipore, USA). For proteomic shotgun identifications, nanoLC-nanoESI-MS/MS analysis was performed on a nanoAcquity system (Waters, USA) connected to the LTQ Orbitrap Velos hybrid MS (Thermo Electron, USA) equipped with a PicoView nanospray interface (New Objective, USA). Samples were loaded onto a C18 BEH column (75 μm × 25 cm length, 130 Å, 1.7 μm particle size) (Waters, USA) and separated by a segmented gradient form in 60 min from 5% to 40% acetonitrile (with 0.1% formic acid) at a constant flow rate of 300 nL/min with a column temperature of 35 °C. The mass spectrometer was operated in the data-dependent mode. […] Protein identification and modification were analyzed using Mascot Daemon (Matrix Science Inc., Chicago). […]
# [1] = test system: HFHSD-fed obese C57BL6/J mice; assay: Cold tolerance test (cold-induced thermogenesis); format: in vivo, mouse; details: for interscapular area temperature, Average / interscapular area temperature: Figure 2T left panel; for interscapular area temperature, Average / rectal temperatures, Average: average of 12 mice; for interscapular area temperature, Average / interscapular area temperature / inguinal area temperature / rectal temperatures, Average / rectal temperatures: in °C (unit assumed); for interscapular area temperature / inguinal area temperature / rectal temperatures: individual mice; for inguinal area temperature: Figure 2T middle panel; for rectal temperatures, Average / rectal temperatures: Figure 2T right panel; for temperature, Figure 2T middle panel, Average: in °C
# Method: For the cold tolerance test, 24-week-old mice with matched average body weight from the two groups were placed individually on HFHSD in a 4 °C chamber. The rectal temperature of the mice was measured after 0, 1, 2, 3, 4, 5, 6, 12, and 18 h. For measuring diet-induced thermogenesis, 24-week-old mice were fasted overnight for 18 h. Then, we measured their rectal temperature at 0, 30, 60, 90, 120, 150, 180, and 240 min after HFHSD refeeding. The rectal and surface temperature were detected by thermal probes (Physitemp Therma TH-5, ThermoWorks, Alpine and MicroTherma 2T, ThermoWorks, Alpine, respectively).
compound,measurement,setting,value
"CCCCCC(=O)/C=C/[C@H]1[C@H](O)CC(=O)[C@@H]1C/C=C\CCCC(=O)O [15-keto-PGE2, 15-keto-prostaglandin E2]","co-immunoprecipitation with 15-keto-PGE2-cysteine antibody, mPPARγ C313A",Myc-DDK-mPPARγ C313A,not in samples expressing mPPARγ with C313A mutation
same,"interscapular, inguinal and rectal temperatures during cold test","[1]; 40 mg/kg/day ip, vs vehicle","higher interscapular, inguinal, and rectal temperatures than vehicle controls during prolonged cold tests"
same,"interscapular area temperature, Average",[1]; period 0 hr,38.275
same,interscapular area temperature,[1]; period 0 hr,37.4 and 37.9 and 38.2 and 38.1 and 38.9
same,"interscapular area temperature, Average",[1]; period 1 hr,37.6917
same,interscapular area temperature,[1]; period 1 hr,37.1 and 37.5 and 37.2 and 37.9 and 37.4
same,"interscapular area temperature, Average",[1]; period 2 hr,37.3583
same,interscapular area temperature,[1]; period 2 hr,37.4 and 37.2 and 36.9 and 37.8 and 37.6 and 36.4
same,"interscapular area temperature, Average",[1]; period 3 hr,37.0083
same,interscapular area temperature,[1]; period 3 hr,37.2 and 37.1 and 36.5 and 37.3 and 37.5 and 36.4
same,"interscapular area temperature, Average",[1]; period 4 hr,37.0083
same,interscapular area temperature,[1]; period 4 hr,37 and 36.8 and 37.6 and 37.3 and 36.2
same,"interscapular area temperature, Average",[1]; period 5 hr,36.8917
same,interscapular area temperature,[1]; period 5 hr,36.5 and 37 and 36.7 and 36.9 and 37.1
same,"interscapular area temperature, Average",[1]; period 6 hr,36.7583
same,interscapular area temperature,[1]; period 6 hr,36.2 and 36.3 and 36.9 and 37.9 and 37
same,"interscapular area temperature, Average",[1]; period 12 hr,35.6833
same,interscapular area temperature,[1]; period 12 hr,36.2 and 37.5 and 34.9 and 35.7 and 35.4
same,"interscapular area temperature, Average",[1]; period 18 hr,34.8333
same,interscapular area temperature,[1]; period 18 hr,36.3 and 35.5 and 33.6 and 33.9 and 35.7
same,inguinal area temperature,[1]; period 0 hr,36.2 and 36.9 and 37.2
same,inguinal area temperature,[1]; period 1 hr,36.2 and 36.8
same,inguinal area temperature,[1]; period 2 hr,35.8 and 34.9
same,inguinal area temperature,[1]; period 3 hr,35.5 and 34.7
same,inguinal area temperature,[1]; period 4 hr,35 and 34.8
same,inguinal area temperature,[1]; period 5 hr,34.9 and 34.7
same,inguinal area temperature,[1]; period 6 hr,35.2 and 34.9
same,inguinal area temperature,[1]; period 12 hr,32.9 and 34.1
same,inguinal area temperature,[1]; period 18 hr,33.2 and 33.7
same,"rectal temperatures, Average",[1]; period 0 hr,37.9667
same,rectal temperatures,[1]; period 0 hr,37.6 and 38.1 and 38.5 and 37.9 and 36.3 and 38.3 and 38
same,"rectal temperatures, Average",[1]; period 1 hr,37.1667
same,rectal temperatures,[1]; period 1 hr,37 and 37.2 and 37.1 and 37.3 and 36.6 and 37.4 and 37.8 and 37.6
same,"rectal temperatures, Average",[1]; period 2 hr,36.6917
same,rectal temperatures,[1]; period 2 hr,37.4 and 35.2 and 36.3 and 37 and 37.2 and 36.8 and 36.6 and 36.9 and 36.1 and 36.4
same,"rectal temperatures, Average",[1]; period 3 hr,36.45
same,rectal temperatures,[1]; period 3 hr,36.7 and 36 and 36.6 and 36.9 and 35.8 and 37.5 and 36.3 and 36.2 and 36.1 and 36.4
same,"rectal temperatures, Average",[1]; period 4 hr,36.45
same,rectal temperatures,[1]; period 4 hr,37 and 36.2 and 36.8 and 37.2 and 36.7 and 36 and 35.7 and 36.4
same,"rectal temperatures, Average",[1]; period 5 hr,36.4167
same,rectal temperatures,[1]; period 5 hr,37.6 and 36.4 and 36.3 and 36.1 and 36.5 and 36.7 and 35.8 and 36.2
same,"rectal temperatures, Average",[1]; period 6 hr,36.4167
same,rectal temperatures,[1]; period 6 hr,36.8 and 36.6 and 36.4 and 35.6 and 37.3 and 36.1 and 36 and 35.5
same,"rectal temperatures, Average",[1]; period 12 hr,35.6917
same,rectal temperatures,[1]; period 12 hr,35.9 and 37.5 and 34.2 and 35.3 and 37.6 and 34.5 and 35.2 and 36.3 and 37.9
same,"rectal temperatures, Average",[1]; period 18 hr,34.025
same,rectal temperatures,[1]; period 18 hr,35.7 and 34.9 and 33 and 33.1 and 34.8 and 34.6 and 32 and 34.5 and 33.4 and 33.6 and 34.2
same,"temperature, Figure 2T middle panel, Average",[1]; time 0,36.2
same,"temperature, Figure 2T middle panel, Average",[1]; time 1,36.0083
same,"temperature, Figure 2T middle panel, Average",[1]; time 2,35.325
same,"temperature, Figure 2T middle panel, Average",[1]; time 3,35.0083
same,"temperature, Figure 2T middle panel, Average",[1]; time 4,34.8083
same,"temperature, Figure 2T middle panel, Average",[1]; time 5,34.6417
same,"temperature, Figure 2T middle panel, Average",[1]; time 6,34.6417
same,"temperature, Figure 2T middle panel, Average",[1]; time 12,34.375
same,"temperature, Figure 2T middle panel, Average",[1]; time 18,33.2583
